14 compounds from patent US20240166646A1, “1H-PYRROLO[2,3-B]PYRIDINE DERIVATIVES AS BCL-2 INHIBITORS FOR THE TREATMENT OF NEOPLASTIC AND AUTOIMMUNE DISEASES” (Newave Pharmaceutical Inc., priority 2020, published 2024) can be followed below.

The IC50 is the concentration that gives 50% inhibition.

Structures are written as SMILES. Structures can show the parent of a compound that is named as a salt.

Sequence of Bcl-2 (P10415 whole entry): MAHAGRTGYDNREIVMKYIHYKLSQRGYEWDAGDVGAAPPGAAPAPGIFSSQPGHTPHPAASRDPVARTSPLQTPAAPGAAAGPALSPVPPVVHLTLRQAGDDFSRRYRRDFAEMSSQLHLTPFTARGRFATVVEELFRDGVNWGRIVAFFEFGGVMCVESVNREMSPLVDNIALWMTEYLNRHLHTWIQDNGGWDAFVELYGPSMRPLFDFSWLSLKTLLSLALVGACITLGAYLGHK

This assay addresses Bcl-2 (Homo sapiens (Human), UniProt P10415). The experiment in a line: Bcl-2 competition binding (fluorescence polarization) assay. To be noted: fluorescein labeled BH3 peptide 15 nM, Bcl-2 protein 30 nM, 3 hours of incubation at room temperature. How it is done: Biological Example 1: Bcl-2 Competition Binding (Fluorescence Polarization) Assay
The fluorescence-labeled 23 amino acid peptide BH3 was purchased from CalBiochem ([…]). […] This binding assay was performed in 96-well plate and with each assay contained 15 and 30 nM of labeled peptide and purified Bcl-2 protein (purchased from R&D Systems, Inc). The assay buffer contained 20 mM Hepes (pH 7.0), 50 mM KCl, 5 mM MgCl2, 20 mM Na2MoO4, 0.1 mg/mi Bovine Gamma Globulin and 0.01% NP40. Compounds were diluted in DMS0 and added to the final assay with concentration range from 20 μM to 2 nM. The polarization degree (mP) value was determined by BioTek Synergy II with background subtraction after 3 hours of incubation at room temperature. IC50 was calculated using Prism software with sigmoidal dose-response curve fitting. ABT-737 was used as reference compound. Such assays, carried out with a range of doses of test compounds, allowed the determination of an approximate IC50 value.
For orientation: In fluorescence polarisation assays a small probe gives low polarisation when free and higher when bound to something large.
Consider `O=C(NS(=O)(=O)c1ccc(NCC2CCOCC2)c([N+](=O)[O-])c1)c1ccc(N2CCC3(CC2)CC(N2CCC[C@H]2c2ccccc2)C3)cc1N1c2cc3cc[nH]c3nc2O[C@@H]2COC[C@H]21` [Example 12, 2-[(11R,15S)-13,16-dioxa-2,4,10-triazatetracyclo[7.7.0.0^{3,7}.0^{11,15}]hexadeca-1(9),2,5,7-tetraen-10-yl]-N-{3-nitro-4-[(oxan-4-ylmethyl)amino]benzenesulfonyl}-4-{2-[(2S)-2-phenylpyrrolidin-1-yl]-7-azaspiro[3.5]nonan-7-yl}benzamide hydrochloride], for which the IC50 worked out at 0.161 nM.

On to `O=C(NS(=O)(=O)c1ccc(NCC2CCOCC2)c([N+](=O)[O-])c1)c1ccc(N2CCC3(CC2)CC(N2CCC[C@H]2c2ccccc2-c2cccnc2)C3)cc1N1c2cc3cc[nH]c3nc2O[C@@H]2COC[C@H]21` [Example 13, 2-[(11R,15S)-13,16-dioxa-2,4,10-triazatetracyclo[7.7.0.0^{3,7}.0^{11,15}]hexadeca-1(9),2,5,7-tetraen-10-yl]-N-{3-nitro-4-[(oxan-4-ylmethyl)amino]benzenesulfonyl}-4-{2-[(2S)-2-[2-(pyridin-3-yl)phenyl]pyrrolidin-1-yl]-7-azaspiro[3.5]nonan-7-yl}benzamide hydrochloride], for which the IC50 came out at 2.42 nM.

Consider `O=C(NS(=O)(=O)c1ccc(NCC2CCOCC2)c([N+](=O)[O-])c1)c1ccc(N2CCC3(CC2)CC(N2CCC[C@H]2c2ccccc2-c2ccncc2)C3)cc1N1c2cc3cc[nH]c3nc2O[C@@H]2COC[C@H]21` [Example 14, 2-[(11R,15S)-13,16-dioxa-2,4,10-triazatetracyclo[7.7.0.0^{3,7}.0^{11,15}]hexadeca-1(9),2,5,7-tetraen-10-yl]-N-{3-nitro-4-[(oxan-4-ylmethyl)amino]benzenesulfonyl}-4-{2-[(2S)-2-[2-(pyridin-4-yl)phenyl]pyrrolidin-1-yl]-7-azaspiro[3.5]nonan-7-yl}benzamide hydrochloride], for which the IC50 was 0.74 nM.

Turning to `O=C(NS(=O)(=O)c1ccc(NCC2CCOCC2)c([N+](=O)[O-])c1)c1ccc(N2CCC3(CC2)CC(N2CCC[C@H]2c2ccccc2C(F)(F)F)C3)cc1N1c2cc3cc[nH]c3nc2O[C@@H]2COC[C@H]21` [Example 15, 2-[(11R,15S)-13,16-dioxa-2,4,10-triazatetracyclo[7.7.0.0^{3,7}.0^{11,15}]hexadeca-1(9),2,5,7-tetraen-10-yl]-N-{3-nitro-4-[(oxan-4-ylmethyl)amino]benzenesulfonyl}-4-{2-[(2S)-2-[2-(trifluoromethyl)phenyl]pyrrolidin-1-yl]-7-azaspiro[3.5]nonan-7-yl}benzamide hydrochloride], the IC50 came to 0.2 nM.

Regarding `COc1ccccc1[C@@H]1CCCN1C1CC2(CCN(c3ccc(C(=O)NS(=O)(=O)c4ccc(NCC5CCOCC5)c([N+](=O)[O-])c4)c(N4c5cc6cc[nH]c6nc5O[C@@H]5COC[C@H]54)c3)CC2)C1` [Example 16, 2-[(11R,15S)-13,16-dioxa-2,4,10-triazatetracyclo[7.7.0.0^{3,7}.0^{11,15}]hexadeca-1(9),2,5,7-tetraen-10-yl]-4-{2-[(2S)-2-(2-methoxyphenyl)pyrrolidin-1-yl]-7-azaspiro[3.5]nonan-7-yl}-N-{3-nitro-4-[(oxan-4-ylmethyl)amino]benzenesulfonyl}benzamide], the IC50 amounted to 0.09 nM.

Regarding `O=C(NS(=O)(=O)c1ccc(NCC2CCOCC2)c([N+](=O)[O-])c1)c1ccc(N2CCC3(CC2)CC(N2CCC[C@H]2c2ccccc2-c2ccccn2)C3)cc1N1c2cc3cc[nH]c3nc2O[C@@H]2COC[C@H]21` [Example 18, 2-[(11R,15S)-13,16-dioxa-2,4,10-triazatetracyclo[7.7.0.0^{3,7}.0^{11,15}]hexadeca-1(9),2,5,7-tetraen-10-yl]-N-{3-nitro-4-[(oxan-4-ylmethyl)amino]benzenesulfonyl}-4-{2-[(2S)-2-[2-(pyridin-2-yl)phenyl]pyrrolidin-1-yl]-7-azaspiro[3.5]nonan-7-yl}benzamide], the IC50 stood at 0.42 nM.

Take `CC(C)Nc1ccccc1[C@@H]1CCCN1C1CC2(CCN(c3ccc(C(=O)NS(=O)(=O)c4ccc(NCC5CCOCC5)c([N+](=O)[O-])c4)c(N4c5cc6cc[nH]c6nc5O[C@@H]5COC[C@H]54)c3)CC2)C1` [Example 21, 2-[(11R,15S)-13,16-dioxa-2,4,10-triazatetracyclo[7.7.0.0^{3,7}.0^{11,15}]hexadeca-1(9),2,5,7-tetraen-10-yl]-4-{2-[(2S)-2-[2-(isopropylamino)phenyl]pyrrolidin-1-yl]-7-azaspiro[3.5]nonan-7-yl}-N-{3-nitro-4-[(oxan-4-ylmethyl)amino]benzenesulfonyl}benzamide hydrochloride]: the IC50 is 0.239 nM.

Take `O=C(NS(=O)(=O)c1ccc(NCC2CCOCC2)c([N+](=O)[O-])c1)c1ccc(N2CCC3(CC2)CC(N2CCC[C@H]2c2ccccc2C2CCC2)C3)cc1N1c2cc3cc[nH]c3nc2O[C@@H]2COC[C@H]21` [Example 22, 4-{2-[(2S)-2-(2-cyclobutylphenyl)pyrrolidin-1-yl]-7-azaspiro[3.5]nonan-7-yl}-2-[(11R,15S)-13,16-dioxa-2,4,10-triazatetracyclo[7.7.0.0^{3,7}.0^{11,15}]hexadeca-1(9),2,5,7-tetraen-10-yl]-N-{3-nitro-4-[(oxan-4-ylmethyl)amino]benzenesulfonyl}benzamide]: the IC50 stood at 0.1 nM.

Consider `O=C(NS(=O)(=O)c1ccc(NCC2CCOCC2)c([N+](=O)[O-])c1)c1ccc(N2CCC3(CC2)CC(N2CCC[C@H]2c2ccccc2Cl)C3)cc1N1c2cc3cc[nH]c3nc2O[C@@H]2COC[C@H]21` [Example 23, 4-{2-[(2S)-2-(2-chlorophenyl)pyrrolidin-1-yl]-7-azaspiro[3.5]nonan-7-yl}-2-[(11R,15S)-13,16-dioxa-2,4,10-triazatetracyclo[7.7.0.0^{3,7}.0^{11,15}]hexadeca-1(9),2,5,7-tetraen-10-yl]-N-{3-nitro-4-[(oxan-4-ylmethyl)amino]benzenesulfonyl}benzamide hydrochloride], for which the IC50 amounted to 0.587 nM.

Consider `O=C(NS(=O)(=O)c1ccc(NCC2CCOCC2)c([N+](=O)[O-])c1)c1ccc(N2CCC3(CC2)CC(N2CCC[C@H]2c2ccccc2F)C3)cc1N1c2cc3cc[nH]c3nc2O[C@@H]2COC[C@H]21` [Example 24, 2-[(11R,15S)-13,16-dioxa-2,4,10-triazatetracyclo[7.7.0.0^{3,7}.0^{11,15}]hexadeca-1(9),2,5,7-tetraen-10-yl]-4-{2-[(2S)-2-(2-fluorophenyl)pyrrolidin-1-yl]-7-azaspiro[3.5]nonan-7-yl}-N-{3-nitro-4-[(oxan-4-ylmethyl)amino]benzenesulfonyl}benzamide hydrochloride], for which the IC50 is 0.42 nM.

`CS(=O)(=O)Nc1ccccc1[C@@H]1CCCN1C1CC2(CCN(c3ccc(C(=O)NS(=O)(=O)c4ccc(NCC5CCOCC5)c([N+](=O)[O-])c4)c(N4c5cc6cc[nH]c6nc5O[C@@H]5COC[C@H]54)c3)CC2)C1` [Example 25, 2-[(11R,15S)-13,16-dioxa-2,4,10-triazatetracyclo[7.7.0.0^{3,7}.0^{11,15}]hexadeca-1(9),2,5,7-tetraen-10-yl]-4-{2-[(2S)-2-(2-methanesulfonamidophenyl)pyrrolidin-1-yl]-7-azaspiro[3.5]nonan-7-yl}-N-{3-nitro-4-[(oxan-4-ylmethyl)amino]benzenesulfonyl}benzamide]: the IC50 came out at 14.8 nM.

As for `N#Cc1ccccc1[C@@H]1CCCN1C1CC2(CCN(c3ccc(C(=O)NS(=O)(=O)c4ccc(NCC5CCOCC5)c([N+](=O)[O-])c4)c(N4c5cc6cc[nH]c6nc5O[C@@H]5COC[C@H]54)c3)CC2)C1` [Example 26, 4-{2-[(2S)-2-(2-cyanophenyl)pyrrolidin-1-yl]-7-azaspiro[3.5]nonan-7-yl}-2-[(11R,15S)-13,16-dioxa-2,4,10-triazatetracyclo[7.7.0.0^{3,7}.0^{11,15}]hexadeca-1(9),2,5,7-tetraen-10-yl]-N-{3-nitro-4-[(oxan-4-ylmethyl)amino]benzenesulfonyl}benzamide], the IC50 turned out to be 0.7 nM.

Turning to `O=C(NS(=O)(=O)c1ccc(NCC2CCOCC2)c([N+](=O)[O-])c1)c1ccc(N2CCC3(CC2)CC(N2CCC[C@H]2c2ccccc2NCC(F)(F)F)C3)cc1N1c2cc3cc[nH]c3nc2O[C@@H]2COC[C@H]21` [Example 27, 2-[(11R,15S)-13,16-dioxa-2,4,10-triazatetracyclo[7.7.0.0^{3,7}.0^{11,15}]hexadeca-1(9),2,5,7-tetraen-10-yl]-N-{3-nitro-4-[(oxan-4-ylmethyl)amino]benzenesulfonyl}-4-{2-[(2S)-2-{2-[(2,2,2-trifluoroethyl)amino]phenyl}pyrrolidin-1-yl]-7-azaspiro[3.5]nonan-7-yl}benzamide], the IC50 was found to be 1.2 nM.

`CC(C)S(=O)(=O)c1ccccc1[C@@H]1CCCN1C1CC2(CCN(c3ccc(C(=O)NS(=O)(=O)c4ccc(NCC5CCOCC5)c([N+](=O)[O-])c4)c(N4c5cc6cc[nH]c6nc5O[C@@H]5COC[C@H]54)c3)CC2)C1` [Example 28, 2-[(11R,15S)-13,16-dioxa-2,4,10-triazatetracyclo[7.7.0.0^{3,7}.0^{11,15}]hexadeca-1(9),2,5,7-tetraen-10-yl]-N-{3-nitro-4-[(oxan-4-ylmethyl)amino]benzenesulfonyl}-4-{2-[(2S)-2-[2-(propane-2-sulfonyl)phenyl]pyrrolidin-1-yl]-7-azaspiro[3.5]nonan-7-yl}benzamide]: the IC50 came to 31.2 nM.
